Assay results: BigSolDB 2.1

CCC(C)n1ncn(-c2ccc(N3CCN(c4ccc(OC[C@H]5CO[C@](Cn6cncn6)(c6ccc(Cl)cc6Cl)O5)cc4)CC3)cc2)c1=O (mixture of isomers)
solubility (mole fraction)
Settings	in chloroform	in dichloromethane	in ethanol	in methanol	in n-butanol	in n-propanol
288.15 K	0.0459	0.0287	1.07e-05	2.35e-05	1.43e-05	1.24e-05
293.15 K	0.048	0.0306	1.43e-05	2.97e-05	1.82e-05	1.61e-05
298.15 K	0.0503	0.0326	1.89e-05	3.78e-05	2.28e-05	2.09e-05
303.15 K	0.0525	0.0347	2.44e-05	4.71e-05	2.87e-05	2.68e-05
308.15 K	0.0548	0.0369	3.18e-05	5.88e-05	3.52e-05	3.36e-05
